Results: US10508118B2, “Pyrimidopyrrole compounds, method for preparing the same, pharmaceutical compositions comprising the same and uses thereof” (Xiamen University, priority 2015, dated 2019)
Like-named read-outs stand apart in the source and are kept apart here.

Experiments:
Assay type in all cases: cell-based
EML4-ALK (L1196M)-BaF3 = target: T1, EML4-ALK (L1196M)-BaF3 (Homo sapiens, UniProt Q9UM73, L1196M); test: Growth inhibition of EML4-ALK (L1196M) transformed BaF3 cells (MTS); settings: 48 hours
T1 construct: expressed in transfected cells; host or cells: Ba/F3 cells; the other entry of the earlier key: EML4 (Q9HC35, Echinoderm microtubule-associated protein-like 4)
Method: (§1) If compounds can inhibit the activity of ALK kinase or the activity of ALK signaling pathway, they can inhibit the growth of ALK transformed Ba/F3 cells. […] The broad-spectrum toxicity of compounds can be evaluated by determining the effect of the compounds on the growth of wild type BaF3 cells.
(§2) 1) Medium: DMEM (Dulbecco's modified eagle medium) or RPMI1640 (containing 10% fetal bovine serum, 100 μg/mL ampicillin, 100 μg/mL streptomycin).)
(§3) Reagents: MTS solution (2 mg/mL MTS (3-(4,5-dimethylthiazol-2-yl)-5-(3-carboxymethoxyphenyl)-2-(4-sulfophenyl)-2H-tetrazolium, inner salt); 100 μg/mL PES ([…])).
(§4) 3) Test of compound: Transformed Ba/F3 cells (EML4-ALK-BaF3, EML4-ALK(L1196M)-BaF3, NPM-ALK-BaF3) (2×10^4/well) were distributed into 96-well plates, with volume of cell sap of 90 μL, 10 μL of compounds in gradient concentration (the highest concentration 10 was μM, followed by 1/3 step by step dilution, a total of 8 concentrations were set, the system contained 0.1% DMSO (dimethyl sulfoxide)). The cell plates mixed with compounds were cultured in a cell incubator (37° C.; 5% CO2) for 48 hours, and the added 20 μL of MTS reaction solution, mixed and incubated in cell incubator (37° C.; 5% CO2) for 1-4 hours. The OD value at a wavelength of 490 nm was measured using eliasa (VARIOSKAN FLASH, Thermo). Three parallels were set up for each group, with a final concentration of 0.1% DMSO as negative control, and with medium without cells and compounds as blank control.
(§5) 4) Calculation of IC50 value: the semi inhibitory concentration of the compound acting on the cells was calculated using GradPad Prism 5 software according to the cell inhibitory rate measured.

EML4-ALK-BaF3 = target: T2, EML4-ALK-BaF3 (Homo sapiens, UniProt Q9UM73); test: Growth inhibition of EML4-ALK transformed BaF3 cells (MTS); settings: for IC50: EML4-ALK-BaF3 cells, 48 hours, MTS
T2 construct: expressed in transfected cells; host or cells: Ba/F3 cells; the other entry of the earlier key: EML4 (Q9HC35, Echinoderm microtubule-associated protein-like 4)
Method: as §1, §2, §3, §4, §5

wild type BaF3 = test: Growth inhibition of wild type BaF3 cells (broad-spectrum toxicity); settings: Mus musculus, BaF3, 48 h, MTS
Method: (§6) The activity of compounds against ALK kinase was evaluated by inhibiting the growth of cellular ALK kinase EML4-ALK-BaF3, EML4-ALK (L1196M)-BaF3, NPM-ALK-BaF3, and wild type BaF3 (Proc. Natl. Acad. Sci. USA., 2006, 103, 3153-8.) The growth of cellular ALK kinase EML4-ALK-BaF3, EML4-ALK(L1196M)-BaF3, and NPM-ALK-BaF3 depends on their kinase activity. If compounds can inhibit the activity of ALK kinase or the activity of ALK signaling pathway, they can inhibit the growth of ALK transformed Ba/F3 cells. […] The broad-spectrum toxicity of compounds can be evaluated by determining the effect of the compounds on the growth of wild type BaF3 cells.
as §2, §3
as §4, with “control. The inhibition rate of cell growth was calculated by the following formula: Cell inhibition rate %=1−(OD experimental group−OD blank group)/(OD negative group−OD blank group)*100%” for “control.”
as §5

NPM-ALK-BaF3 = target: T3, NPM-ALK-BaF3 (Homo sapiens, UniProt Q9UM73); test: Growth inhibition of NPM-ALK transformed BaF3 cells (MTS); settings: 48 hours
T3 construct: expressed in transfected cells; host or cells: Ba/F3 cells; the other entry of the earlier key: NPM1 (P06748, Nucleophosmin)
Method: as §6, §2, §3
as §4, with “control. The inhibition rate of cell growth was calculated by the following formula: Cell inhibition rate %=1−(OD experimental group−OD blank group)/(OD negative group−OD blank group)*100%” for “control.”
as §5

[1] = Table 11, read-out: EML4-ALK (L1196M) (IC50 nM)
[2] = Table 12, read-out: L1196M (IC50 nM)

| Structure (SMILES) | IC50 (EML4-ALK (L1196M)-BaF3; [1]) [nM] | IC50 (EML4-ALK-BaF3; Table 11) [nM] | IC50 (wild type BaF3; Table 11) [nM] | IC50 (NPM-ALK-BaF3; Table 11) [nM] | IC50 (EML4-ALK (L1196M)-BaF3; [2]) [nM] | IC50 (EML4-ALK-BaF3; Table 12) [nM] | IC50 (wild type BaF3; Table 12) [nM] | IC50 (NPM-ALK-BaF3; Table 12) [nM] | targeting selectivity (EML4-ALK-BaF3; ratio of IC50 between wild-type BaF3 and ALK transformed BaF3 cells) |
| --- | --- | --- | --- | --- | --- | --- | --- | --- | --- |
| COC(=O)c1ccccc1Nc1nc(Nc2ccc(N3CCC(O)CC3)nc2)nc2cc[nH]c12 [IG-18] | 4370 | 4680 | > 10000 | 8760 |  |  |  |  |  |
| CNc1nc(Nc2ccc(N3CCC(N4CCN(C)CC4)CC3)cc2OC)nc2cc[nH]c12 [IQ-2] | > 10000 | > 10000 | > 10000 | > 10000 |  |  |  |  |  |
| COC(=O)c1ccccc1Nc1nc(Nc2ccc(N3CCOCC3)cc2)nc2cc[nH]c12 [IG-5] | > 10000 | 7800 | > 10000 | > 10000 |  |  |  |  |  |
| NS(=O)(=O)c1ccc(Nc2nc(NC3CC3)c3[nH]ccc3n2)cc1 [IS-4] | > 10000 | > 10000 | > 10000 | > 10000 |  |  |  |  |  |
| CCOc1cc(C(=O)N2CCC(N3CCN(C)CC3)CC2)ccc1Nc1nc(Nc2ccccc2SC)c2c(ccn2C)n1 [IIA-5] |  |  |  |  | ~883 | ~877 | ~336 | 519 |  |
| CNc1nc(Nc2ccc(C(=O)N3CCN(C)CC3)cc2OC)nc2cc[nH]c12 [IQ-6] | > 10000 | > 10000 | > 10000 | > 10000 |  |  |  |  |  |
| CS(=O)(=O)c1ccccc1CNc1nc(Nc2ccc(S(N)(=O)=O)cc2)nc2cc[nH]c12 [IN-4] | > 10000 | > 10000 | > 10000 | > 10000 |  |  |  |  |  |
| COC(=O)c1cccc(Nc2nc(Nc3ccc(N4CCOCC4)cc3)nc3cc[nH]c23)c1 [II-5] | 488 | 238 | 1060 | 1290 |  |  |  |  | good targeting selectivity |
| Cn1ccc2nc(Nc3ccc(N4CCC(O)CC4)cc3)nc(Nc3ccccc3S(C)(=O)=O)c21 [IIC-3] |  |  |  |  | 8990 | 8290 | ~10600 | 11800 |  |
| CNC(=O)c1ccccc1Nc1nc(Nc2ccc(N3CCC(N4CCCC4)CC3)cc2OC)nc2cc[nH]c12 [IJ-2] | 4110 | ~8710 | ~11700 | ~8360 |  |  |  |  |  |
| CS(=O)(=O)c1ccccc1Nc1nc(Nc2ccc(S(N)(=O)=O)cc2)nc2cc[nH]c12 [IC-4] | > 10000 | > 10000 | > 10000 | > 10000 |  |  |  |  |  |
| COc1cc(N2CCN(C)CC2)ccc1Nc1nc(Nc2ccccc2S(=O)(=O)C(C)C)c2c(ccn2C)n1 [IID-1] |  |  |  |  | ~2960 | 546 | ~8180 | 2260 |  |
| COC(=O)c1ccccc1Oc1nc(Nc2ccc(N3CCC(O)CC3)cc2)nc2ccn(C)c12 [IIN-3] |  |  |  |  | > 10000 | > 10000 | > 10000 | > 10000 |  |
| CCNc1nc(Nc2ccc(N3CCC(O)CC3)cc2)nc2cc[nH]c12 [IR-3] | > 10000 | > 10000 | > 10000 | > 10000 |  |  |  |  |  |
| COC(=O)c1sccc1Nc1nc(Nc2ccc(N3CCC(N4CCN(C)CC4)CC3)cc2OC)nc2cc[nH]c12 [IK-2] | 451 | 669 | ~913 | ~823 |  |  |  |  |  |
| CCOc1cc(N2CCC(O)CC2)ccc1Nc1nc(Nc2ccccc2S(=O)(=O)C(C)C)c2c(ccn2C)n1 [IID-6] |  |  |  |  | ~3000 | 1600 | > 10000 | ~3130 |  |
| CC(C)S(=O)(=O)c1ccccc1CNc1nc(Nc2ccc(N3CCC(O)CC3)cc2)nc2cc[nH]c12 [IO-3] | > 10000 | > 10000 | > 10000 | > 10000 |  |  |  |  |  |

| Structure (SMILES) | IC50 (EML4-ALK (L1196M)-BaF3; [1]) [nM] | IC50 (EML4-ALK-BaF3; Table 11) [nM] | IC50 (wild type BaF3; Table 11) [nM] | IC50 (NPM-ALK-BaF3; Table 11) [nM] | IC50 (EML4-ALK (L1196M)-BaF3; [2]) [nM] | IC50 (EML4-ALK-BaF3; Table 12) [nM] | IC50 (wild type BaF3; Table 12) [nM] | IC50 (NPM-ALK-BaF3; Table 12) [nM] | targeting selectivity (EML4-ALK-BaF3; ratio of IC50 between wild-type BaF3 and ALK transformed BaF3 cells) |
| --- | --- | --- | --- | --- | --- | --- | --- | --- | --- |
| COC(=O)c1cccc(Nc2nc(Nc3ccc(N4CCC(N5CCCC5)CC4)cc3OC)nc3cc[nH]c23)c1 [II-6] | ~7400 | 4960 | ~8220 | 6720 |  |  |  |  |  |
| CC(C)Sc1ccccc1Nc1nc(Nc2ccc(S(N)(=O)=O)cc2)nc2cc[nH]c12 [IB-3] | 8700 | 4220 | > 10000 | 8830 |  |  |  |  |  |
| CSc1ccccc1Nc1nc(Nc2ccc(N3CCC(O)CC3)cc2)nc2ccn(C)c12 [IIA-3] |  |  |  |  | 161 | 321 | 376 | 456 |  |
| COC(=O)c1ccccc1Nc1nc(Nc2cc(C)c(C3CCN(C)CC3)cc2OC)nc2cc[nH]c12 [IG-14] | 884 | ~1260 | ~2550 | 1390 |  |  |  |  |  |
| COC(=O)c1ccccc1Sc1nc(Nc2ccc(N3CCC(N4CCCC4)CC3)cc2OC)nc2cc[nH]c12 [IU-5] | ~2510 | ~2880 | ~7720 | ~2850 |  |  |  |  |  |
| COC(=O)c1ccccc1Sc1nc(Nc2ccc(S(N)(=O)=O)cc2)nc2cc[nH]c12 [IU-4] | 5990 | 9110 | > 10000 | > 10000 |  |  |  |  |  |
| COC(=O)c1ccccc1Nc1nc(Nc2ccc(N3CCC(N4CCN(C)CC4)CC3)cc2OC)nc2cc[nH]c12 [IG-2] | 1190 | 1200 | 1800 | 1430 |  |  |  |  |  |
| COc1cc(C2CCN(C)CC2)c(C)cc1Nc1nc(Nc2ccccc2S(=O)(=O)C(C)C)c2c(ccn2C)n1 [IID-9] |  |  |  |  | ~2880 | 2240 | ~8300 | 4740 |  |
| COC(=O)c1ccccc1Oc1nc(Nc2ccc(N3CCC(N4CCN(C)CC4)CC3)cc2OC)nc2cc[nH]c12 [IV-2] | 3960 | ~8980 | ~8450 | ~9140 |  |  |  |  |  |
| COc1cc(N2CCC(N3CCN(C)CC3)CC2)ccc1Nc1nc(NCc2ccccc2S(C)(=O)=O)c2[nH]ccc2n1 [IN-2] | > 10000 | > 10000 | > 10000 | > 10000 |  |  |  |  |  |
| CSc1ccccc1CNc1nc(Nc2ccc(S(N)(=O)=O)cc2)nc2ccn(C)c12 [III-3] |  |  |  |  | 4000 | 3200 | ~3340 | 3710 |  |
| COC(=O)c1ccccc1Nc1nc(Nc2ccc(N3CCC(O)CC3)cc2OC(C)C)nc2cc[nH]c12 [IG-9] | > 10000 | > 10000 | > 10000 | > 10000 |  |  |  |  |  |
| COC(=O)c1sccc1Nc1nc(Nc2ccc(N3CCN(C)CC3)cc2OC)nc2cc[nH]c12 [IK-1] | 1550 | ~2580 | 1820 | 1780 |  |  |  |  |  |
| CN1CCN(c2ccc(Nc3nc(NCc4ccccc4S(C)(=O)=O)c4c(ccn4C)n3)cc2)CC1 [IIK-5] |  |  |  |  | ~2560 | 1430 | ~2870 | 1880 |  |
| COC(=O)c1cccc(Nc2nc(Nc3ccc(N4CCC(O)CC4)cc3)nc3ccn(C)c23)c1 [IIH-2] |  |  |  |  | 1810 | 1970 | 2830 | 4470 |  |
| COc1cc(N2CCN(C)CC2)ccc1Nc1nc(NCc2ccccc2S(=O)(=O)C(C)C)c2[nH]ccc2n1 [IO-1] | 3400 | 1720 | 4080 | 4830 |  |  |  |  |  |
| COC(=O)c1cccc(Nc2nc(Nc3ccc(N4CCC(N5CCN(C)CC5)CC4)cc3OC)nc3cc[nH]c23)c1 [II-2] | ~2560 | 1810 | ~3030 | ~2600 |  |  |  |  |  |
